Target: T1, bovine PDE6 (Bos taurus, UniProt P11541+P23439)
T1 construct: PDE6 was purified and isolated from bovine retina (bovine PDE6); from tissue; host or cells: bovine retina
T1 sequence (P11541 2-856 limits assumed): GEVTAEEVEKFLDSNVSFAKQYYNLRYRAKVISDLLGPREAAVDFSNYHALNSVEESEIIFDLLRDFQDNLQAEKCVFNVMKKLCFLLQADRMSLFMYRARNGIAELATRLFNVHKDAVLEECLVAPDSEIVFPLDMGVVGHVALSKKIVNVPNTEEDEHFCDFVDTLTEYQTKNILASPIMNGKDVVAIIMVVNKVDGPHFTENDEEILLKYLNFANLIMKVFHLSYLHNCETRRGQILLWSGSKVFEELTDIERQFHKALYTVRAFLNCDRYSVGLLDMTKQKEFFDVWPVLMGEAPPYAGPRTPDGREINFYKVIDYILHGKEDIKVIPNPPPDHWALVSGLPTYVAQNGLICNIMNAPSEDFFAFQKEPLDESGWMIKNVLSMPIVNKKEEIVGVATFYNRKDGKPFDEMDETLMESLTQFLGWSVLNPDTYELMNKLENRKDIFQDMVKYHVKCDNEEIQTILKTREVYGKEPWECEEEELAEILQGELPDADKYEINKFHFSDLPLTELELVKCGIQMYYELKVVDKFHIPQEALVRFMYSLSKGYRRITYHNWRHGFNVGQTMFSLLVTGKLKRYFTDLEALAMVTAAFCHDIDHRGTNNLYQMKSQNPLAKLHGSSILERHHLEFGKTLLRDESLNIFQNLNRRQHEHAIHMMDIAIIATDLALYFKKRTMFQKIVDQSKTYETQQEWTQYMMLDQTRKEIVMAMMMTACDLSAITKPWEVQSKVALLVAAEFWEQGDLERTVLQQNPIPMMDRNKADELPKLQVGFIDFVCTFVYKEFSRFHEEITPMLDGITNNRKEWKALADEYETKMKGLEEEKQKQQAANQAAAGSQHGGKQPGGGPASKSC
T1 sequence (P23439 2-850 limits assumed): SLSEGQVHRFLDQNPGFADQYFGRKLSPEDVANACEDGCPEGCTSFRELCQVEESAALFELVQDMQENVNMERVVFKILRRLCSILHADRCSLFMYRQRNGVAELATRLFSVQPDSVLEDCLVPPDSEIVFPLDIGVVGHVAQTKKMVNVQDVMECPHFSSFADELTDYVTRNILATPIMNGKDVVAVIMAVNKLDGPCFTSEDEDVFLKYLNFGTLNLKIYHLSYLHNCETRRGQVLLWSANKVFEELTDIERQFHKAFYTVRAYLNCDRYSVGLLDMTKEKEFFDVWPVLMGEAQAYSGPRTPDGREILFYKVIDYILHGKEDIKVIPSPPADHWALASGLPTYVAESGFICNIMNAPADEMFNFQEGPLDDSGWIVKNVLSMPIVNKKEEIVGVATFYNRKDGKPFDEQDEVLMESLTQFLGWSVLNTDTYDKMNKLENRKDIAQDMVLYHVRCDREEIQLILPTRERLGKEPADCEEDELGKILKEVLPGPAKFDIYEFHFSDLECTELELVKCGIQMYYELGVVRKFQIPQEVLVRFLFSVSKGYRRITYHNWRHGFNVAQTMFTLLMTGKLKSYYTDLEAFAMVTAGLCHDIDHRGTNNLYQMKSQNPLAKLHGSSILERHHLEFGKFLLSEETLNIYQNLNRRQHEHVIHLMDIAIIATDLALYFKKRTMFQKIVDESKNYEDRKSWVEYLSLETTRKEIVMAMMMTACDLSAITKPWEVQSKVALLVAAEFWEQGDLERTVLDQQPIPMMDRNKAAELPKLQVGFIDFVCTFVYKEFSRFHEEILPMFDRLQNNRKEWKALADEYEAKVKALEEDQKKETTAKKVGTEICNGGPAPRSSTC
Assay: PDE7 selectivity test (Ki value), Experimental Example 2: bovine PDE6
Format: biochemical
Settings: Ki from IC50 by Cheng-Prusoff, read-out: PDE inhibition constant Ki, PDE6
Protocol: hPDE1A, hPDE2A, hPDE3A, hPDE4D, hPDE5A, and hPDE8B were purchased from SB Drug Discovery. hPDE7B was isolated by the same method as [Method for preparing samples 1], and hPDE9A, hPDE10A, and hPDE11A were isolated by the same method as hPDE7B, i.e., isolated from COS-7 cells transfected with plasmids encoding each PDE. PDE6 was purified and isolated from bovine retina (bovine PDE6).
Prior to the calculation of Ki value, Km value of each PDE against cAMP or cGMP was calculated. Each PDE diluted with an assay buffer so that it would have an appropriate enzyme activity, and six or more concentrations of cAMP or cGMP were reacted at room temperature for 60 minutes. Regarding PDE using cAMP as a substrate, PDELight (trademark) HTS cAMP phosphodiesterase Kit (Lonza) was used to measure a degradation product, 5′-AMP. Also, regarding PDE using cGMP as a substrate, […] of perchloric acid was added to the mixture to stop the reaction, and the resulting mixture was subjected to LC-MS/MS to measure the residual cGMP concentration. The amount of degraded substrate in each substrate concentration was calculated, the concentration of the added substrate was plotted on the horizontal axis, the amount of degraded substrate was plotted on the vertical axis, and Km value was calculated by non-linear regression on the basis of Michaelis-Menten equation. Km value (substrate) of each PDE was hPDE1A: 4.3 (cGMP), hPDE2A: 36 (cAMP), hPDE3A: 0.11 (cAMP), hPDE4D: 0.90 (cAMP), hPDE5A: 3.9 (cGMP), bovine PDE6:9.8 (cGMP), hPDE7B: 0.015 (cAMP), hPDE8B: 0.63 (cAMP), hPDE9A: 0.0037 (cGMP), hPDE10A: 0.051 (cAMP), and hPDE11A: 1.4 (cAMP) μmol/L, respectively.
Next, PDE inhibition assay of a compound was carried out using each PDE. The PDE inhibition assay was basically carried out by the same enzyme reaction method as [Assay procedure 1], and the degraded amount of cAMP or cGMP was measured by the same method as [Assay procedure 2]. In the assay, a concentration approximated to Km value of each PDE against cAMP or cGMP was used as a substrate concentration. Meanwhile, regarding hPDE5A, hPDE8B, and hPDE9A, IMAP (trademark) FP Phosphodiesterase Evaluation Assay Kit (Molecular Devices) was used to measure the degradation of FAM-cAMP or FAM-cGMP by fluorescence depolarization technique.
Each compound was evaluated at six or more concentrations with common ratio 10. Each inhibition rate was calculated according to <Method for data calculation 1>, and then each IC50 value was calculated by sigmoid regression. The resulting IC50 value was used in the following Cheng-Prusoff equation to calculate each Ki value. Ki=IC50/(1+[S]/Km), wherein [S] represents a substrate concentration used

| Structure (SMILES) | Ki [µM] |
| --- | --- |
| CC1CCCCC1n1nnc2c(N)ncnc21 (single isomer, unassigned) [Example 191, 3-(cis-2-methylcyclohexyl)-3H-[1,2,3]triazolo[4,5-d]pyrimidin-7-amine] | > 49 |
| Nc1ncnc2c1nnn2C1CCCCC1 [Example 3, 3-cyclohexyl-3H-[1,2,3]triazolo[4,5-d]pyrimidin-7-amine] | > 49 |
| Cc1nc(N)c2nnn(C3CCCCC3)c2n1 [Example 4] | > 4.9 |
| Nc1nccn2c(C3CCCCC3)nnc12 [Example 141, 3-cyclohexyl[1,2,4]triazolo[4,3-a]pyrazin-8-amine] | > 4.9 |
| C[C@@H]1CCC[C@H](c2nnc3c(N)nccn23)C1 [Example 204, 3-[(1S,3R)-3-methylcyclohexyl][1,2,4]triazolo[4,3-a]pyrazin-8-amine] | > 49 |

Reference: US20190185479A1, “BICYCLIC NITROGENATED HETEROCYCLIC COMPOUND” (MITSUBISHI TANABE PHARMA CORPORATION, priority 2016, published 2019)
